Assay results reported in patent publication US5654427A, “Indolocarbazole derivatives to treat a pathological condition of the prostate” (Kyowa Hakko Kogyo Co., Ltd., priority 1995, dated 1997).

Columns and labels:
Format in all cases: cell-based
[1] = test system: PC-3; assay: growth inhibition of PC-3 prostate cancer cells (calcein fluorescence); settings: Homo sapiens, PC-3, 72 h; 3 days incubation; read-out: PC-3 IC50
Protocol: (§1) Throughout the experiment the Tsu-Pr1 and Du-Pro1 cells were maintained in RPMI 1640 medium (GIBCO) containing 10% fetal bovine serum (Hyclone), 2 mM glutamine, 100 U/ml penicillin, and 100 μg/ml streptomycin. The PC-3 cells were maintained in Ham's F12K medium (Irvine Scientific) containing 10% fetal bovine serum (Hyclone), 2 mM glutamine, 100 U/ml penicillin, and 100 μg/ml streptomycin. All cell lines were maintained at 37° C. in a humidified atmosphere containing 5% CO2. The DU-145 cells were maintained in minimal essential medium (Gibco), containing 10% fetal bovine serum (Hyclone), 2 mM glutamine, and no antibiotics.
(§2) Tests for growth inhibition by the candidate compounds were conducted by the following procedure. In each well of a 96-well plate (Falcon) were placed 2,500 cells in 0.1 ml of medium. The cultures were incubated overnight after which a 0.1 ml aliquot of culture medium was added to each well. […] Other control wells received medium without any K-252a derivative compounds. Incubation was continued for three days. On day three the number of cells in each well was measured using a calcein fluorescence assay (Bozyczko-Coyne et al. J. Neurosci. Meth. 50, 205-216 (1993)).
(§3) Calcein AM (Molecular Probes, Eugene, Oreg.), an analog of the viable dye fluorescein diacetate, is taken up by cells and cleaved intracellularly to fluorescent salts that are retained by intact membranes of viable cells. This method thus provides a reliable and quantitative measurement of cell survival. Calcein AM was diluted 2× in Dulbeccos phosphate buffered saline (D-PBS) to 2× the final assay concentration (6 μM) and 100 μl was added to culture wells containing 100 μl of medium. The plates were then incubated for 1 hour at 37° C. Cells were then washed 4 times with D-PBS to remove excess calcein not taken up by cells. The plate was read using a Millipore plate reading fluorimeter (Cytofluor 2350) at emission=485 nm and excitation=538 nm. After subtraction of blank values (wells containing medium but no cells), relative fluorescent values reflect a quantitative measurement of cell survival. […]

[2] = test system: androgen independent human prostate cancer cell lines Tsu-Pr1, DuPro-1, PC-3 and DU-145; assay: growth inhibition of prostate cancer-derived cell lines, overall (calcein fluorescence); settings: Table 3
Protocol: as §1, §2, §3

[3] = test system: Du-Pro1; assay: growth inhibition of Du-Pro1 prostate cancer cells (calcein fluorescence); settings: Homo sapiens, 72 h; 3 days incubation; read-out: Du-Pro1 IC50
Protocol: as §1, §2
Calcein AM (Molecular Probes, Eugene, Oreg.), an analog of the viable dye fluorescein diacetate, is taken up by cells and cleaved intracellularly to fluorescent salts that are retained by intact membranes of viable cells. This method thus provides a reliable and quantitative measurement of cell survival. Calcein AM was diluted 2× in Dulbeccos phosphate buffered saline (D-PBS) to 2× the final assay concentration (6 μM) and 100 μl was added to culture wells containing 100 μl of medium. The plates were then incubated for 1 hour at 37° C. Cells were then washed 4 times with D-PBS to remove excess calcein not taken up by cells. The plate was read using a Millipore plate reading fluorimeter (Cytofluor 2350) at emission=485 nm and excitation=538 nm. After subtraction of blank values (wells containing medium but no cells), relative fluorescent values reflect a quantitative measurement of cell survival.
The number of cells in the wells containing functional derivatives was compared to the number of cells in the control wells. The concentration which inhibited cell growth by 50% was calculated and is referred to as the "IC50 ".

COC1(CO)CC2OC1(C)n1c3ccccc3c3c4c(c5c6ccccc6n2c5c31)C(=O)NC4 (stereo not drawn) [Compound I-19]
IC50 [1]: 5 µM
potency in inhibiting prostate cell line growth, in words [2]: most potent compounds in inhibiting growth in all four cell lines
IC50 [3]: 0.27 µM
